Laboratory results: US7118895B2, “Process for producing aglycon by using diglycosidase and flavor-improved food containing the aglycon and converting agent to be used in the process” (Amano Enzyme Inc., priority 2000, dated 2006)

Experiments:
[1] = test system: Diglycosidase derived from P. multicolor; assay: Reactivity toward various isoflavone glycosides (HPLC); format: biochemical, Penicillium multicolor; parameters: glucoside / aglycon: unit not given here; details: 55 °C, pH 4.0
Procedure: (§1) Diglycosidase was diluted with an acetate buffer of pH 4.0 to prepare a 0.75 AU/mL enzyme solution. As references, a similar operation was conducted using β-glucosidase (manufactured by Fluka) derived from Aspergillus niger, β-glucosidase (manufactured by Sigma) derived from almond, β-xylosidase derived from pectinase G (manufactured by Amano Enzyme Inc.). Each of purified products of isoflavone glycosides (glycitin, acetylglycitin, malonylglycitin, daidzin, acetyldaidzin, malonyldaidzin, genistin, acetylgenistin, malonylgenistin, all manufactured by Nacalai Tesque, Inc.) was dissolved in methanol to prepare each 2 mM substrate solution. The reaction was carried out by mixing 10 μL of a substrate solution, 200 μL of 20 mM acetate buffer (pH 4.0), and 40 μL of each purified enzyme solution at a total liquid volume of 250 μL. The reaction was carried out at 55° C. and isolation of an aglycon isoflavone from an isoflavone glycoside in the reaction mixture was detected by HLPC at 0, 1, 3, and 6 hours of the reaction.
(§2) To the reaction mixture was added 700 μL of ethanol, followed by stirring and ultrasonication. After centrifugation at 15,000 rpm and 4° C. for 10 minutes, the supernatant was filtered through a filter and then the filtrate was applied to HPLC.
(§3) The isoflavone glycoside and aglycon isoflavone contained in the filtrate was separated and detected by a high performance liquid chromatography (HPLC, Shimadzu CLASS LC-10 system) using TOSOH TSK gel ODS-80TM column (manufactured by Tosoh Corporation). […] The absorbance at 260 nm was detected by a UV detector (Shimadzu, SPD-10AV). Using purified products (manufactured by Nacalai Tesque, Inc.) of the above isoflavone glycosides and aglycon isoflavones, the isoflavone glycoside and aglycon isoflavone were quantitatively determined according to a calibration curve method. By the way, unless otherwise stated, the measuring conditions of HPLC herein mean those described in the example.

[2] = test system: Diglycosidase derived from A. fumigatus; assay: as above; format: biochemical, Aspergillus fumigatus; parameters: unit not given here; details: 55 °C, pH 4.0
Procedure: as §1, §2, §3

[3] = test system: β-Glucosidase derived from almond; assay: as above; format: biochemical; parameters: unit not given here; details: 55 °C, pH 4.0
Procedure: as §1, §2, §3

[4] = test system: β-Xylosidase derived from pectinase G; assay: as above; format: biochemical; parameters: unit not given here; details: 55 °C, pH 4.0
Procedure: as §1, §2, §3

Purified diglycosidase = assay: Influence of free glucose on diglycosidase activity; format: biochemical, Penicillium multicolor IAM7153; details: isolated aglycon amount at glucose 0% and 0.5 hour = 100%
Procedure: Purified diglycosidase was diluted with 20 mM acetate buffer of pH 4.0 to prepare a 0.75 AU/mL enzyme solution.
With a glucose solution was mixed 10 μL of each 2 mM substrate solution described in Example 2, and 20 mM acetate buffer of pH 4.0 was added thereto to be a liquid volume of 210 μL. Further, 40 μL of the enzyme solution was added and reaction was carried out at a final liquid volume of 250 μL. Adjustment of the glucose solution to be added allows glucose to exist in the reaction mixture in the range of 0 to 20%. The reaction was carried out at 55° C. and the existence of isoflavone glycosides and aglycon isoflavones was detected by HLPC at 0, 0.5, 1, and 3 hours of the reaction.

SMILES | aglycon ([1]; Reaction time 0 h) | glucoside ([1]; Reaction time 0 h) | aglycon ([1]; Reaction time 1 h) | glucoside ([1]; Reaction time 1 h) | aglycon ([1]; Reaction time 3 h) | glucoside ([1]; Reaction time 3 h) | aglycon ([1]; Reaction time 6 h) | glucoside ([1]; Reaction time 6 h) | aglycon ([2]; Reaction time 0 h) | glucoside ([2]; Reaction time 0 h) | aglycon ([2]; Reaction time 1 h) | glucoside ([2]; Reaction time 1 h) | aglycon ([2]; Reaction time 3 h) | glucoside ([2]; Reaction time 3 h) | aglycon ([2]; Reaction time 6 h) | glucoside ([2]; Reaction time 6 h) | aglycon ([3]; Reaction time 0 h) | glucoside ([3]; Reaction time 0 h) | aglycon ([3]; Reaction time 1 h) | glucoside ([3]; Reaction time 1 h) | other results
O=C(O)CC(=O)OC[C@H]1O[C@@H](Oc2ccc3c(=O)c(-c4ccc(O)cc4)coc3c2)[C@H](O)[C@@H](O)[C@@H]1O [malonyldaidzin, 6″-O-malonyldaidzin] | 0 | 100 | 50.8 | 49.2 | 60.1 | 39.9 | 61.5 | 38.5 | 0 | 100 | 10 | 90 | 20.5 | 79.5 | 32.3 | 67.7 | 0 | 100 | 0 | 100 | aglycon ([3]; Reaction time 3 h): 0; glucoside ([3]; Reaction time 3 h): 100; aglycon ([3]; Reaction time 6 h): 0; glucoside ([3]; Reaction time 6 h): 100; aglycon ([4]; Reaction time 0 h): 0; glucoside ([4]; Reaction time 0 h): 100; aglycon ([4]; Reaction time 1 h): 0.4; glucoside ([4]; Reaction time 1 h): 99.6; aglycon ([4]; Reaction time 3 h): 1.6; glucoside ([4]; Reaction time 3 h): 98.4; aglycon ([4]; Reaction time 6 h): 3.3; glucoside ([4]; Reaction time 6 h): 96.7; Isolation of isoflavone aglycons by diglycosidase in presence of glucose (Purified diglycosidase; Glucose concentration 0 %): 100%; Isolation of isoflavone aglycons by diglycosidase in presence of glucose (Purified diglycosidase; Glucose concentration 2 %): 125.3%; Isolation of isoflavone aglycons by diglycosidase in presence of glucose (Purified diglycosidase; Glucose concentration 4 %): 132.1%; Isolation of isoflavone aglycons by diglycosidase in presence of glucose (Purified diglycosidase; Glucose concentration 8 %): 125.4%; Isolation of isoflavone aglycons by diglycosidase in presence of glucose (Purified diglycosidase; Glucose concentration 20 %): 98.1%
CC(=O)OC[C@H]1O[C@@H](Oc2ccc3c(=O)c(-c4ccc(O)cc4)coc3c2)[C@H](O)[C@@H](O)[C@@H]1O [acetyldaidzin, 6″-O-acetyldaidzin] | 0 | 100 | 89.6 | 10.4 | 96.2 | 3.8 | 96.2 | 3.8 | 0 | 100 | 26.1 | 73.9 | 47.2 | 52.8 | 66.5 | 33.5 | 0.2 | 99.8 | 0.5 | 99.5 | aglycon ([3]; Reaction time 3 h): 0.6; glucoside ([3]; Reaction time 3 h): 99.4; aglycon ([3]; Reaction time 6 h): 0.6; glucoside ([3]; Reaction time 6 h): 99.4; aglycon ([4]; Reaction time 0 h): 0; glucoside ([4]; Reaction time 0 h): 100; aglycon ([4]; Reaction time 1 h): 9.7; glucoside ([4]; Reaction time 1 h): 90.3; aglycon ([4]; Reaction time 3 h): 1.3; glucoside ([4]; Reaction time 3 h): 98.7; aglycon ([4]; Reaction time 6 h): 2.3; glucoside ([4]; Reaction time 6 h): 97.7; Isolation of isoflavone aglycons by diglycosidase in presence of glucose (Purified diglycosidase; Glucose concentration 0 %): 100%; Isolation of isoflavone aglycons by diglycosidase in presence of glucose (Purified diglycosidase; Glucose concentration 2 %): 108.1%; Isolation of isoflavone aglycons by diglycosidase in presence of glucose (Purified diglycosidase; Glucose concentration 4 %): 112.2%; Isolation of isoflavone aglycons by diglycosidase in presence of glucose (Purified diglycosidase; Glucose concentration 8 %): 115.8%; Isolation of isoflavone aglycons by diglycosidase in presence of glucose (Purified diglycosidase; Glucose concentration 20 %): 114.5%
